Among the data in ChEMBL document CHEMBL5357064 (ACS Med Chem Lett, 2024) are Ratio Ki and Ki values, retold here.

The term Ki denotes the dissociation constant of the complex between target and ligand, obtained from inhibition or displacement.

One experiment is filed under the species Homo sapiens. Kind of experiment: Selectivity ratio of Ki for human SK3 to Ki for human SK2.
Experiment [1] deals with Small conductance calcium-activated potassium channel protein 3 (Homo sapiens, UniProt Q9UGI6). Kind of experiment: Displacement of [125I]apamin from human SK3 expressed in HEK293 cells assessed as inhibition constant incubated for 1 hr by liquid scintillation counting analysis. In kind it is cell-based. A general note: In a radioligand displacement assay an active substance lowers the binding of a labelled ligand.

The target of experiment [2] is T1, Small conductance calcium-activated potassium channel protein 2 (Homo sapiens, UniProt Q9H2S1). As to the kind of experiment: Displacement of [125I]apamin from human SK2 expressed in HEK293 cells assessed as inhibition constant incubated for 1 hr by liquid scintillation counting analysis. The experiment is classed as cell-based.
In experiment [3] the target is T1, Small conductance calcium-activated potassium channel protein 2. Kind of experiment: Displacement of [125I]apamin from SK2 (unknown origin) expressed in HEK293 cells assessed as inhibition constant incubated for 1 hr by liquid scintillation counting analysis. The experiment is classed as cell-based.

T1 sequence (Q9H2S1 whole entry): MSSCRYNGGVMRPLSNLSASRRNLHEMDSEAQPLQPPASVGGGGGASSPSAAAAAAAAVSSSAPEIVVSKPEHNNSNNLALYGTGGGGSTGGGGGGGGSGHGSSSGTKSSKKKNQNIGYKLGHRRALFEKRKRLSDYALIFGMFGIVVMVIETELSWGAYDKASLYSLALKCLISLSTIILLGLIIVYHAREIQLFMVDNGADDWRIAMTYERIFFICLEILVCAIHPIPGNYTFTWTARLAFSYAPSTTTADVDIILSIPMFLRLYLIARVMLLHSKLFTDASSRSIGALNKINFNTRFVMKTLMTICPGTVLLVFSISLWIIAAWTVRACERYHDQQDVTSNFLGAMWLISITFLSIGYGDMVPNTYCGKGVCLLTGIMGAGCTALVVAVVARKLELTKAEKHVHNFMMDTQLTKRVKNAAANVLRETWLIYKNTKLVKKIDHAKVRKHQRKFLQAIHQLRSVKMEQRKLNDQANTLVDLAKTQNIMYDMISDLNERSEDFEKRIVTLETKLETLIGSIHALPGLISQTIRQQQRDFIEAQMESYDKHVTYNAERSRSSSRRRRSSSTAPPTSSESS
Small conductance calcium-activated potassium channel protein 3, sequence (Q9UGI6 whole entry): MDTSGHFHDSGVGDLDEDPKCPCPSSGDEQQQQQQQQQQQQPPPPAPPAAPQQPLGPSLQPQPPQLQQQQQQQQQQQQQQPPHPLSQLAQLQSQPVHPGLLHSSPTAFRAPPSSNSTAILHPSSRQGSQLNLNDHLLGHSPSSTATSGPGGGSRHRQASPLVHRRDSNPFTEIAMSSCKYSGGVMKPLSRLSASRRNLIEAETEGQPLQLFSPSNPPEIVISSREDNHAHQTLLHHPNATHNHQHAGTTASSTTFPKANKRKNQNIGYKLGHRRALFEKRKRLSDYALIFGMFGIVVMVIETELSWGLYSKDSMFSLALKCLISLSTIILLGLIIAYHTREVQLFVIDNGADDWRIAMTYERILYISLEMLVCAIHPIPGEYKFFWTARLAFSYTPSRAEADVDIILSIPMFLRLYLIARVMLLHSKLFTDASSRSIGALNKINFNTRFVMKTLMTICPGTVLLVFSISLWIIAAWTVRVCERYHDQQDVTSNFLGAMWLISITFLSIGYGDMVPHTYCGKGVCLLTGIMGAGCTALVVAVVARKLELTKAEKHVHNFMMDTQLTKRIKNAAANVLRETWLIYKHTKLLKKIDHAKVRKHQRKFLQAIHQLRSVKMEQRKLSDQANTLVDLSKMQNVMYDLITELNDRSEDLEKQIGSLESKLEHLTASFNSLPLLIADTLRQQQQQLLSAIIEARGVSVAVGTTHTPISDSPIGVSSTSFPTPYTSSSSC

For the compound `COc1cc2c3cc1Oc1c(OC)c(OC)cc4c1[C@@H](Cc1ccc(O)c(c1)Oc1ccc(cc1)C[C@@H]3N(C)CC2)N(C)CC4` [BERBAMINE], in the experiment listed under Homo sapiens, the Ratio Ki was 2.17. For the same compound, the Ki was found to be 679 nM in experiment [1] and 284 nM in experiment [2].

On to `COc1cc2c(cc1OC)[C@H](CCC[C@H]1c3cc(OC)c(OC)cc3CCN1C)N(C)CC2`, for which, in experiment [3], the Ki is 277 nM.
